Test results published in patent US4490369A, “Benzazepine derivatives, their pharmaceutical compositions and method of use” (Dr. Karl Thomae Gesellschaft mit beschrankter Haftung, priority 1981, dated 1984).
Structures can show the parent of a compound that is named as a salt.

Key:
Acute toxicity in mice = conditions: mouse, in vivo, observation period 14 days
Experimental: The acute toxicity of the test compound was determined in mice (observationperiod: 14 days) after intravenous and peroral administration: […]

cats = experiment: Effect on heart rate in cats; format: in vivo, cat; conditions: anesthetized cats, 1.0 mg/kg i.v.; for Half-life: heart rate effect
Experimental: The cats were anesthetized with Nembutal (30 mg/kg i.p.) and chloralose urethane (40 mg/ml of chloralose+200 mg/ml of urethane, as required). The compound to be tested was injected in aqueous solution into the vena saphena or into the duodenum. The heart rate was recorded before and after the admiministration of the substance by means of a Grass tachograph from the electrocardiagram (taken from and chest wall) on a Grass polygraph.

rats = experiment: Effect on heart rate in rats; format: in vivo, rat; conditions: anesthetized rats
Experimental: The effect of the test substances on heart rate was investigated in two rats with an average weight of 250 to 300 gm for each dose. The rats were anesthetized with pentobarbital (50 mg/kg i.p. and 20 mg/kg s.c.). The test substances were injected in aqueous solution into the jugular vein (0.1 ml/100 gm). The blood pressure was measured using a cannula inserted in a carotid artery and the heart rate was recorded from an ECG (IInd or IIIrd reading) obtained using needle electrodes. The heart rate of the animals in the control period was between 350 and 400 beats per minute (b/min).

SMILES	Reduction in Heart Rate (cats) [%]	Half-life (cats) [h]	Reduction in Heart Rate (20 Minutes) After Application of the Compound (rats; 1.0 mg/kg i.v.) [Beats/Minutes]	Reduction in Heart Rate (20 Minutes) After Application of the Compound (rats; 2.5 mg/kg i.v.) [Beats/Minutes]	Reduction in Heart Rate (20 Minutes) After Application of the Compound (rats; 5.0 mg/kg i.v.) [Beats/Minutes]	other results
COc1ccc(CCN(C)CCCN2CCc3cc(OC)c(OC)cc3CC2=O)cc1OC.Cl.Cl [A, 1-[7,8-Dimethoxy-1,3,4,5-tetrahydro-2H-3-benzazepin-2-on-3-yl]-3-[N-methyl-N-(2-{3,4-dimethoxy-phenyl}-ethyl)-amino]-propane dihydrochloride]	-55	2	–	–	–	LD50 at 336 h (Acute toxicity in mice; iv): 89 mg/kg; LD50 at 336 h (Acute toxicity in mice; po): 1350 mg/kg
COc1ccc(CCN(C)CCCN2C=Cc3cc(OC)c(OC)cc3CC2=O)cc1OC.Cl [B, 1-[7,8-Dimethoxy-1,3-dihydro-2H-3-benzazepin-2-on-3-yl]-3-[N-methyl-N-(2-{3,4-dimethoxy-phenyl}-ethyl)-amino]-propane hydrochloride]	-45	2	–	–	–	–
COc1ccc(CCN(C)CCCN2CCc3cc(OC)c(OC)cc3C(=O)C2=O)cc1OC [C, 1-[7,8-Dimethoxy-1,3,4,5-tetrahydro-2H-3-benzazepine-1,2-dion-3-yl]-3-[N-methyl-(2-}3,4-dimethoxy-phenyl}-ethyl)-amino]-propane hydrochloride]	-44	1.5	–	–	–	–
COc1ccc(CCN(C)CCCN2CCc3cc(OC)c(OC)cc3NC2=O)cc1OC [D, 1-[7,8-Dimethoxy-1,3,4,5-tetrahydro-2H-1,3-benzodiazepin-2-on-3-yl]-3-[N-methyl-(2-{3,4-dimethoxy-phenyl}-ethyl)-amino]-propane]	-41	1.33	–	–	–	–
COc1ccc(CCNCCCN2CCc3cc(OC)c(OC)cc3CC2=O)cc1OC.Cl [E, 1-[7,8-Dimethoxy-1,3,4,5-tetrahydro-2H-3-benzazepin-2-on-3-yl]-3-[N-(2-{3,4-dimethoxy-phenyl}-ethyl)-amino]-propane hydrochloride]	-45	1.5	–	–	–	–
COc1cc2c(cc1OC)CC(=O)N(CCCN(C)CCc1cc(Cl)c(N)c(Cl)c1)CC2 [F, 1-[7,8-Dimethoxy-1,3,4,5-tetrahydro-2H-3-benzazepin-2-on-3-yl]-3-[N-methyl-N-(2-{4-amino-3,5-dichloro-phenyl}-ethyl)-amino]-propane]	-51	2	–	–	–	–
COc1ccc(CCCN(C)CCCN2CCc3cc(OC)c(OC)cc3CC2=O)cc1OC.Cl [L, 1-[7,8-Dimethoxy-1,3,4,5-tetrahydro-2H-3-benzazepin-2-on-3-yl]-3-[N-methyl-N-(3-{3,4-dimethoxy-phenyl}-propyl)-amino]-propane hydrochloride]	–	–	-51	-85	-183	–
COc1ccc(CCN(C)CCCN2CCc3cc(OC)c(OC)cc3CC2=S)cc1OC [M, 1-[7,8-Dimethoxy-1,3,4,5-tetrahydro-2H-3-benzazepin-2-thion-3-yl]-N-[N-methyl-N-(2-{3,4-dimethoxy-phenyl}-ethyl)-amino]-propane]	–	–	-73	-134	-255	–
COc1ccc(C(O)CN(C)CCCN2CCc3cc(OC)c(OC)cc3CC2=O)cc1OC (stereo not shown) [N, 1-[7,8-Dimethoxy-1,3,4,5-tetrahydro-2H-3-benzazepin-2-on-3-yl]-3-[N-methyl-N-(2-hydroxy-2-{3,4-dimethoxyphenyl}-ethyl)-amino]-propane]	–	–	–	-137	-173	–
COc1ccc(CCN(C)CCCN2CCc3cc(OC)c(OC)cc3C(O)C2=O)cc1OC (stereo not shown) [O]	–	–	-83	-73	-117	–
COc1cc2c(cc1OC)CC(=O)N(CCCN(C)CCc1ccc(N)c([N+](=O)[O-])c1)CC2 [P, 1-[7,8-Dimethoxy-1,3,4,5-tetrahydro-2H-3-benzazepin-2-on-3-yl]-3-[N-methyl-N-(2-{4-aino-3-nitro-phenyl}-ethyl)-amino]-propane hydrochloride]	–	–	–	–	-130	–
COc1cc2c(cc1OC)CC(=O)N(CCCN(C)CCCCc1ccc(N(C)C)cc1)CC2 [Q, 1-[7,8-Dimethoxy-1,3,4,5-tatrahydro-2H-3-benzazepin-2-on-3-yl]-3-N-methyl-N-(4-{4-dimethylaino-phenyl}butyl)-amino]-propane hydrobromide]	–	–	-94	-91	-123	–
COc1cc2c(cc1OC)CC(=O)N(CCCN(C)CCc1ccccc1)CC2.Cl.Cl [R, 1-[7,8-Dimethoxy-1,3,4,5-tetrahydro-2H-3-benzazepin-2-on-3-yl]-3-[N-methyl-N-(2-phenyl-ethyl)-amino]-propane dihydrochloride]	–	–	-80	-110	-135	–
COc1cc(CCCCCN(C)CCCN2CCc3cc(OC)c(OC)cc3CC2=O)cc(OC)c1 [S, 1-[7,8-Dimethoxy-1,3,4,5-tetrahydro-2H-3-benzazepin-2-on-3-yl]-3-[N-methyl-N-(5-{3,5-dimethoxy-phenyl}-pentyl)-amino]-propane]	–	–	–	–	-18	–
COc1cc2c(cc1OC)CC(=O)N(CCCN(C)CCCc1cc(Cl)c(N)c(Cl)c1)CC2 [T, 1-[7,8-Dimethoxy-1,3,4,5-tetrahydro-2H-3-benzazepin-2-on-3-yl]-3-[N-methyl-N-(3-{4-amino-3,5-dichlorophenyl}-propyl)-amino]-propane]	–	–	–	–	-175	–
COc1ccc(CCN(C)CCCN2CCCc3cc(OC)c(OC)cc3C2=O)cc1OC [U, 1-[7,8-Dimethoxy-1,3,4,5-tetrahydro-5H-2-benzazepin-1-on-2-yl]-3-[N-methyl-N-(2-{3,4-dimethoxy-phenyl}-ethyl)-amino]-propane hydrochloride, reference compound]	-8.2	0.217	–	–	-18	–
